pIC50: −log10 of the molar value.

The target of one test is Recombinant human cathepsin S (CatS) (Homo sapiens, UniProt P25774). The test is described as follows: Recombinant human cathepsin S (CatS) inhibition assay, fluorogenic substrate Z-Valine-Valine-Arginine-AMC.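 Also: Baculovirus-expressed CatS in pH 5.0 sodium acetate buffer with DTT and NaCl, fluorescence read each minute over 20 min, inhibition derived from rate slope.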
Sequence of Recombinant human cathepsin S (CatS) (P25774 115-331): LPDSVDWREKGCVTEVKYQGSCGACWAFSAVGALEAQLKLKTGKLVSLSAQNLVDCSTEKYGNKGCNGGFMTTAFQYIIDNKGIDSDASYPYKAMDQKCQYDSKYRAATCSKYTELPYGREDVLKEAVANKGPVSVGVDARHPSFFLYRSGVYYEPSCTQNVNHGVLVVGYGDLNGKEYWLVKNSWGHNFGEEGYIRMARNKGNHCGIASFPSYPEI
Settings: not given
One may read the pIC50 as −log10 of the IC50, conventionally taken in molar units. As to `CS(=O)(=O)N1CCc2c(c(-c3ccc(Cl)c(C#Cc4ccc(CNCc5ccc(Cl)cc5)cc4)c3)nn2CCCN2CCC(NC(=O)CO)CC2)C1` [Example 356, N-(1-{3-[3-(4-Chloro-3-{[4-({[(4-chlorophenyl)methyl]amino}methyl)phenyl]ethynyl}phenyl)-5-(methylsulfonyl)-4,5,6,7-tetrahydro-1H-pyrazolo[4,3-c]pyridin-1-yl]propyl}piperidin-4-yl)-2-hydroxyacetamide], the negative logarithm of the IC50 (pIC50) was 7.70.

As to `CS(=O)(=O)N1CCc2c(c(-c3ccc(Cl)c(C#Cc4ccc(CNCc5ccc(Cl)cc5)cc4)c3)nn2CCCN2CCC(F)CC2)C1` [Example 358, 1-{4-[(2-Chloro-5-{1-[3-(4-fluoropiperidin-1-yl)propyl]-5-(methylsulfonyl)-4,5,6,7-tetrahydro-1H-pyrazolo[4,3-c]pyridin-3-yl}phenyl)ethynyl]phenyl}-N-[(4-chlorophenyl)methyl]methanamine], the pIC50 is 7.00. On to `CS(=O)(=O)N1CCc2c(c(-c3ccc(Cl)c(C#Cc4ccc5c(c4)CNCC5)c3)nn2CCCN2CCOCC2)C1` [Example 360, 7-({2-Chloro-5-[5-(methylsulfonyl)-1-(3-morpholin-4-ylpropyl)-4,5,6,7-tetrahydro-1H-pyrazolo[4,3-c]pyridin-3-yl]phenyl}ethynyl)-1,2,3,4-tetrahydroisoquinoline], for which the pIC50 was 6.77. In the case of `CS(=O)(=O)N1CCc2c(c(-c3ccc(Cl)c(C#Cc4ccc(CNCc5ccc(Cl)cc5)cc4)c3)nn2CC(O)CN2CCCCC2)C1` (stereo not drawn) [Example 361, 1-[3-(4-Chloro-3-{[4-({[(4-chlorophenyl)methyl]amino}methyl)phenyl]ethynyl}phenyl)-5-(methylsulfonyl)-4,5,6,7-tetrahydro-1H-pyrazolo[4,3-c]pyridin-1-yl]-3-piperidin-1-ylpropan-2-ol], the negative logarithm of the IC50 (pIC50) is 6.77. On to `CC(=O)NC1CCN(CC(O)Cn2nc(-c3ccc(Cl)c(C#Cc4ccc(CNCc5ccc(Cl)cc5)cc4)c3)c3c2CCN(S(C)(=O)=O)C3)CC1` (stereo not drawn) [Example 362, N-(1-{3-[3-(4-Chloro-3-{[4-({[(4-chlorophenyl)methyl]amino}methyl)phenyl]ethynyl}phenyl)-5-(methylsulfonyl)-4,5,6,7-tetrahydro-1H-pyrazolo[4,3-c]pyridin-1-yl]-2-hydroxypropyl}piperidin-4-yl)acetamide], for which the pIC50 is 7.30. The same measure, in the same setting: next, `CS(=O)(=O)N1CCc2c(c(-c3ccc(Cl)c(C#Cc4ccc(CNCc5ccc(Cl)cc5)cc4)c3)nn2CC(O)CN2CCC(C(N)=O)CC2)C1` (stereo not drawn) [Example 363, 1-{3-[3-(4-Chloro-3-{[4-({[(4-chlorophenyl)methyl]amino}methyl)phenyl]ethynyl}phenyl)-5-(methylsulfonyl)-4,5,6,7-tetrahydro-1H-pyrazolo[4,3-c]pyridin-1-yl]-2-hydroxypropyl}piperidine-4-carboxamide]: 7.05; `CS(=O)(=O)N1CCc2c(c(-c3ccc(Cl)c(C#Cc4ccc5c(c4)CCNC5)c3)nn2CCCN2CCOCC2)C1` [Example 365, 6-({2-Chloro-5-[5-(methylsulfonyl)-1-(3-morpholin-4-ylpropyl)-4,5,6,7-tetrahydro-1H-pyrazolo[4,3-c]pyridin-3-yl]phenyl}ethynyl)-1,2,3,4-tetrahydroisoquinoline]: 6.55. As to `CS(=O)(=O)N1CCc2c(c(-c3ccc(Cl)c(C#Cc4cccc5c4CNCC5)c3)nn2CCCN2CCOCC2)C1` [Example 366, 8-({2-Chloro-5-[5-(methylsulfonyl)-1-(3-morpholin-4-ylpropyl)-4,5,6,7-tetrahydro-1H-pyrazolo[4,3-c]pyridin-3-yl]phenyl}ethynyl)-1,2,3,4-tetrahydroisoquinoline], the pIC50 is 6.17. Turning to `CC(=O)NC1CCN(CCCn2nc(-c3ccc(Cl)c(C#Cc4ccc(CNCc5ccc(Cl)cc5)cc4)c3)c3c2CCNC3)CC1` [Example 369, N-(1-{3-[3-(4-Chloro-3-{[4-({[(4-chlorophenyl)methyl]amino}methyl)phenyl]ethynyl}phenyl)-4,5,6,7-tetrahydro-1H-pyrazolo[4,3-c]pyridin-1-yl]propyl}piperidin-4-yl)acetamide], the pIC50 is 6.39.

Turning to `CC(C)(C)OC(=O)N1CCc2ccc(C#Cc3cc(-c4nn(CCCN5CCOCC5)c5c4CN(S(C)(=O)=O)CC5)ccc3Cl)cc2C1` [Example 370, 1,1-Dimethylethyl 7-({2-chloro-5-[5-(methylsulfonyl)-1-(3-morpholin-4-ylpropyl)-4,5,6,7-tetrahydro-1H-pyrazolo[4,3-c]pyridin-3-yl]phenyl}ethynyl)-3,4-dihydroisoquinoline-2(1H)-carboxylate], the pIC50 is 6.14. With `CC(C)(C)OC(=O)N1CCc2ccc(C#Cc3cc(-c4nn(CC(O)CN5CCCCC5)c5c4CN(S(C)(=O)=O)CC5)ccc3Cl)cc2C1` (stereo not drawn) [Example 371, 1,1-Dimethylethyl 7-({2-chloro-5-[1-(2-hydroxy-3-piperidin-1-ylpropyl)-5-(methylsulfonyl)-4,5,6,7-tetrahydro-1H-pyrazolo[4,3-c]pyridin-3-yl]phenyl}ethynyl)-3,4-dihydroisoquinoline-2(1H)-carboxylate], the pIC50 was 6.42. Take `CC(C)(C)OC(=O)N1CCc2ccc(C#Cc3cc(-c4nn(CC(O)CN5CCC(C(N)=O)CC5)c5c4CN(S(C)(=O)=O)CC5)ccc3Cl)cc2C1` (stereo not drawn) [Example 373, 1,1-Dimethylethyl 7-({5-[1-{3-[4-(aminocarbonyl)piperidin-1-yl]-2-hydroxypropyl}-5-(methylsulfonyl)-4,5,6,7-tetrahydro-1H-pyrazolo[4,3-c]pyridin-3-yl]-2-chlorophenyl}ethynyl)-3,4-dihydroisoquinoline-2(1H)-carboxylate]: the negative-log IC50 (pIC50) is 6.77.

The test is the same for the next values; noted with them: CatS IC50.
Consider `CC1(C)CCN(CCCn2nc(-c3ccc(Cl)c(C#Cc4ccc(CNCc5ccc(Cl)cc5)cc4)c3)c3c2CCN(S(C)(=O)=O)C3)CC1` [Example 355, 1-{4-[(2-Chloro-5-{1-[3-(4,4-dimethylpiperidin-1-yl)propyl]-5-(methylsulfonyl)-4,5,6,7-tetrahydro-1H-pyrazolo[4,3-c]pyridin-3-yl}phenyl)ethynyl]phenyl}-N-[(4-chlorophenyl)methyl]methanamine], for which the pIC50 is 6.96. Consider `CS(=O)(=O)N1CCc2c(c(-c3ccc(Cl)c(C#Cc4ccc(CNCc5ccc(Cl)cc5)cc4)c3)nn2CCCN2CCC(F)(F)CC2)C1` [Example 357, 1-{4-[(2-Chloro-5-{1-[3-(4,4-difluoropiperidin-1-yl)propyl]-5-(methylsulfonyl)-4,5,6,7-tetrahydro-1H-pyrazolo[4,3-c]pyridin-3-yl}phenyl)ethynyl]phenyl}-N-[(4-chlorophenyl)methyl]methanamine], for which the negative-log IC50 (pIC50) was 6.68. `CS(=O)(=O)NC1CCN(CCCn2nc(-c3ccc(Cl)c(C#Cc4ccc(CNCc5ccc(Cl)cc5)cc4)c3)c3c2CCN(S(C)(=O)=O)C3)CC1` [Example 359, N-(1-{3-[3-(4-Chloro-3-{[4-({[(4-chlorophenyl)methyl]amino}methyl)phenyl]ethynyl}phenyl)-5-(methylsulfonyl)-4,5,6,7-tetrahydro-1H-pyrazolo[4,3-c]pyridin-1-yl]propyl}piperidin-4-yl)methanesulfonamide]: the negative logarithm of the IC50 (pIC50) was 7.10. `CS(=O)(=O)N1CCc2c(c(-c3ccc(Cl)c(C#Cc4ccc5c(c4)CN(C(=O)C(F)(F)F)C5)c3)nn2CCCN2CCOCC2)C1` [Example 364, 3-(4-Chloro-3-{[2-(trifluoroacetyl)-2,3-dihydro-1H-isoindol-5-yl]ethynyl}phenyl)-5-(methylsulfonyl)-1-(3-morpholin-4-ylpropyl)-4,5,6,7-tetrahydro-1H-pyrazolo[4,3-c]pyridine]: the pIC50 was 6.77. Same read-out and setting: the figure for `CC(C)(C)OC(=O)N1CCN(CCCn2nc(-c3ccc(Cl)c(C#Cc4ccc(CNCc5ccc(Cl)cc5)cc4)c3)c3c2CCN(S(C)(=O)=O)C3)CC1` [Example 367, 1,1-Dimethylethyl 4-{3-[3-(4-chloro-3-{[4-({[(4-chlorophenyl)methyl]amino}methyl)phenyl]ethynyl}phenyl)-5-(methylsulfonyl)-4,5,6,7-tetrahydro-1H-pyrazolo[4,3-c]pyridin-1-yl]propyl}piperazine-1-carboxylate] is 7.05. The same measure, in the same setting: next, `CS(=O)(=O)N1CCc2c(c(-c3ccc(Cl)c(C#Cc4ccc(CNCc5ccc(Cl)cc5)cc4)c3)nn2CCCN2CCNCC2)C1` [Example 368, 1-[4-({2-Chloro-5-[5-(methylsulfonyl)-1-(3-piperazin-1-ylpropyl)-4,5,6,7-tetrahydro-1H-pyrazolo[4,3-c]pyridin-3-yl]phenyl}ethynyl)phenyl]-N-[(4-chlorophenyl)methyl]methanamine]: 6.48; `CC(C)(C)C1CCN(CCCn2nc(-c3ccc(Cl)c(C#Cc4ccc(CNCc5ccc(Cl)cc5)cc4)c3)c3c2CCN(S(C)(=O)=O)C3)CC1` [Example 372, 1-[4-({2-Chloro-5-[1-{3-[4-(1,1-dimethylethyl)piperidin-1-yl]propyl}-5-(methylsulfonyl)-4,5,6,7-tetrahydro-1H-pyrazolo[4,3-c]pyridin-3-yl]phenyl}ethynyl)phenyl]-N-[(4-chlorophenyl)methyl]methanamine]: 7.22. `CC(C)(C)OC(=O)N1CCc2ccc(C#Cc3cc(-c4nn(CCCN5CCC(C(N)=O)CC5)c5c4CN(S(C)(=O)=O)CC5)ccc3Cl)cc2C1` [Example 374, 1,1-Dimethylethyl 7-({5-[1-{3-[4-(aminocarbonyl)piperidin-1-yl]propyl}-5-(methylsulfonyl)-4,5,6,7-tetrahydro-1H-pyrazolo[4,3-c]pyridin-3-yl]-2-chlorophenyl}ethynyl)-3,4-dihydroisoquinoline-2(1H)-carboxylate]: the negative-log IC50 (pIC50) was 6.80. For the compound `CS(=O)(=O)N1CCc2c(c(-c3ccc(Cl)c(C#Cc4ccc5c(c4)CCNCC5)c3)nn2CCCN2CCOCC2)C1` [Example 375, 7-({2-Chloro-5-[5-(methylsulfonyl)-1-(3-morpholin-4-ylpropyl)-4,5,6,7-tetrahydro-1H-pyrazolo[4,3-c]pyridin-3-yl]phenyl}ethynyl)-2,3,4,5-tetrahydro-1H-3-benzazepine], the pIC50 is 6.39.

(Values after US20080200454A1, “CARBON-LINKED TETRAHYDRO-PYRAZOLO-PYRIDINE MODULATORS OF CATHEPSIN S” (priority 2007, published 2008).)
